PMC11213860, “Competitive protein recruitment in artificial cells” (Communications Chemistry, 2024)

T1: 14-3-3γ (Homo sapiens, UniProt P61981)
T1 construct: His-tagged full-length 14-3-3σ and 14-3-3γ were kindly provided by
T1 sequence (P61981 1-247): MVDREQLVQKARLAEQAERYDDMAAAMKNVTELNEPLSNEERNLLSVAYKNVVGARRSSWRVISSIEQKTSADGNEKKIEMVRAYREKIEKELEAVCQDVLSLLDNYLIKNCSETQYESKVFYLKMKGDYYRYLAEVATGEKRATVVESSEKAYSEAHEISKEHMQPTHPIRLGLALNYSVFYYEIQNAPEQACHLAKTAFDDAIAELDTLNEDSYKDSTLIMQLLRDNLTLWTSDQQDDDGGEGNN

B1: His-tagged full-length 14-3-3σ (natural protein)
chain: MERASLIQKAKLAEQAERYEDMAAFMKGAVEKGEELSCEERNLLSVAYKNVVGGQRAAWRVLSSIEQKSNEEGSEEKGPEVREYREKVETELQGVCDTVLGLLDSHLIKEAGDAESRVFYLKMKGDYYRYLAEVATGDDKKRIIDSARSAYQEAMDISKKEMPPTNPIRLGLALNFSVFHYEIANSPEEAISLAKTTFDEAMADLHTLSEDSYKDSTLIMQLLRDNLTLWTADNAGEEGGEAPQEPQS
modifications: in the coacervate experiments labelled with Cy5 or DyLight 405 (NHS ester, aspecific)

Legend:
14-3-3γ = target: T1, 14-3-3γ; assay: Fluorescence anisotropy assay, titration of 14-3-3γ to labeled peptide; format: binding; conditions: ratio of KD values from fluorescence anisotropy
BiExoS [change] peptide = assay: fluorescence polarisation
T14-3-3 = assay: Fluorescence anisotropy assay, titration of T14-3-3 to labeled peptides; format: binding; conditions: Supplementary Table 1; unphosphorylated peptide, cf. Supplementary Fig. 7
Procedure: 14-3-3 was titrated in a 2-fold dilution series to 10 nM of fluorescently labeled peptide in coacervate buffer (20 mM HEPES, 100 mM KCl, pH 7.5) supplemented with 0.1% (v/v) of Tween 20 and 1 mg/mL of bovine serum albumin (BSA) to prevent aspecific hydrophobic interactions. Dilution series were prepared in low volume, non-binding polystyrene 384-well plates (Corning 4514 Black Round Bottom 384-well plates). Measurements were performed directly after plate preparation using a Tecan Spark plate reader at room temperature. The following settings were used: excitation 485 ± 20 nm; emission: 535 ± 25 nm; mirror: Dichroic 510; number of flashes: 30; integration time: 40 µs; settle time: 1 ms; gain: optimal; and Z-position: calculated from well. Wells containing only the labeled peptide were used to set as G-factor at 35 mAU. All data were analyzed using GraphPad Prism (version 10.0.3) and fitted using a four-parameter logistic model (4PL) to determine binding affinities (KD). All results are based on triplicates, with the mean and standard error determined by GraphPad.

| Molecule | Kd (BiExoS [change] peptide) [µM] | other results |
| --- | --- | --- |
| CC(C)C[C@H](NC(=O)[C@H](CO)NC(=O)CNC(=O)[C@H](CCC(=O)O)NC(=O)[C@H](CO)NC(=O)[C@H](CO)NC(=O)[C@@H]1CCCN1C(=O)[C@H](CO)NC(=O)[C@H](CO)NC(=O)[C@@H](NC(=O)[C@H](CC(N)=O)NC(=O)[C@H](Cc1ccccc1)NC(=O)[C@@H](NC(=O)[C@H](Cc1ccccc1)NC(=O)[C@H](C)NC(=O)[C@H](Cc1c[nH]cn1)NC(=O)[C@@H]1CCCN1C(=O)[C@@H](NC(=O)[C@H](COP(=O)(O)O)NC(=O)[C@H](Cc1ccc(O)cc1)NC(=O)[C@H](CCCNC(=N)N)NC(=O)[C@H](Cc1c[nH]cn1)NC(=O)[C@H](CCC(N)=O)NC(=O)CCCCCNC(=S)Nc1ccc2c(c1)C(=O)OC21c2ccc(O)cc2Oc2cc(O)ccc21)[C@@H](C)O)[C@@H](C)O)[C@@H](C)O)C(=O)N[C@@H](CO)C(=O)N[C@@H](CCC(N)=O)C(=O)N[C@@H](CCCNC(=N)N)C(=O)N[C@@H](CCC(N)=O)C(=O)N[C@@H](CCCNC(=N)N)C(=O)N[C@@H](CO)C(=O)N[C@H](C(=O)N[C@@H](COP(=O)(O)O)C(=O)N[C@H](C(=O)N1CCC[C@H]1C(=O)N[C@@H](CC(N)=O)C(=O)N[C@H](C(=O)N[C@@H](Cc1c[nH]cn1)C(N)=O)C(C)C)[C@@H](C)O)[C@@H](C)O [FITC-c-Raf pS] | – | difference in bulk affinity of the peptide for the two isoforms (14-3-3σ vs 14-3-3γ) (14-3-3γ): 40 fold |
| His-tagged full-length 14-3-3γ (from UniProt P61981 1-247) (natural protein) | 0.059 | – |
| FITC-Ahx-QHRYSTPHAFTFNTSSPSSEGSLSQRQRSTSTPNVH-Ac [c-Raf S233/S259, unphosphorylated FITC-labeled c-Raf S233/S259 peptide] | – | Binding mode to 14-3-3 (T14-3-3): No binding |
| B1 | 23 | – |
